Target: 20S proteasome (chymotrypsin-like activity) (Homo sapiens, UniProt P28074)
Experiment: fluorogenic Suc-LLVY-AMC peptidase assay with purified […] proteasome
Format: biochemical

Chain of 20S proteasome (chymotrypsin-like activity) (P28074 60-263): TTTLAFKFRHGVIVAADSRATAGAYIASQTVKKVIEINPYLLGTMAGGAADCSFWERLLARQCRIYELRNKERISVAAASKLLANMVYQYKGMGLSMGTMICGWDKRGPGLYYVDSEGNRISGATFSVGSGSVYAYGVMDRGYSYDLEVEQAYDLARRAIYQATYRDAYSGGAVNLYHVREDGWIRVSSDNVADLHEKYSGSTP

For `CC(C)=CC[C@]12Oc3cc(O)c([C@H]4C=C(C)C[C@H](c5ccc(O)cc5O)[C@H]4C(=O)c4ccc(O)cc4O)c(O)c3C(=O)[C@@]1(O)Oc1cc(O)ccc12` [Sanggenon C], the IC50 was 4 µM.
